# Results: patent US20060069132A1, “Azolecarboxamide herbicides” (priority 2004, published 2006)
# Legend:
# chickweed = experiment: Test C postemergence herbicide test; type: in vivo, Stellaria media; conditions: for Chickweed plant response rating: 500 g ai/ha
# Procedure, shortened: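 After a postemergence application at 1 to 4 leaves (plants 2–18 cm high), or at 2 leaves for barnyardgrass in flooded paddy, plants stayed in the greenhouse for 12 to 14 days. Damage was then judged visually relative to control plants, with 100 indicating complete control.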
# johnsongrass = experiment: Test C pre-/postemergence herbicide test; type: in vivo, Sorghum halepense; conditions: for Johnsongrass plant response rating: 500 g ai/ha
# Procedure, shortened: (§1)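 Emerged plants at the 1- to 4-leaf stage (2–18 cm), or freshly planted seeds, received test chemicals in a non-phytotoxic solvent mixture with surfactant. Response was visually scored against controls after 12 to 14 days in the greenhouse, on a 0 (no effect) to 100 (complete control) scale.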
# giant foxtail [1] = experiment: Test A pre-/postemergence herbicide test; type: in vivo, Setaria faberi
# Procedure, shortened: (§2)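 Both application timings were run together: directed soil spray over freshly planted seeds in sandy loam, and runoff spray onto 2–10 cm seedlings. Evaluation after ~10 days in greenhouse used a 0–100 visual scale versus untreated controls.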
# rice = experiment: Test C flooded paddy test; type: in vivo, Oryza sativa; conditions: for Plant response rating, Rice: 500 g ai/ha, visual rating after 12 to 14 days
# Procedure, shortened: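 Injury scored visually against controls on a 0 (no effect) to 100 (complete control) scale, 12 to 14 days after treatment in greenhouse. Flooded paddy plants treated at 2-leaf stage; postemergence plants at 1- to 4-leaf stage, 2 to 18 cm tall.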
# redroot pigweed = experiment: Test A pre-/postemergence herbicide test; type: in vivo, Amaranthus retroflexus
# Procedure, shortened: as §2
# large crabgrass = experiment: Test A pre-/postemergence herbicide test; type: in vivo, Digitaria sanguinalis
# Procedure, shortened: as §2
# yellow nutsedge = experiment: Test C pre-/postemergence herbicide test; type: in vivo, Cyperus esculentus; conditions: for Nutsedge, Yellow plant response rating: 500 g ai/ha
# Procedure, shortened: as §1
# giant foxtail [2] = experiment: Test C pre-/postemergence herbicide test; type: in vivo, Setaria faberi; conditions: for Foxtail, Giant plant response rating: 500 g ai/ha
# Procedure, shortened: as §1
# kochia = experiment: Test C pre-/postemergence herbicide test; type: in vivo, Kochia scoparia; conditions: for Kochia plant response rating: 500 g ai/ha
# Procedure, shortened: as §1
# Surinam grass = experiment: Test C pre-/postemergence herbicide test; type: in vivo, Urochloa decumbens; conditions: for Surinam Grass plant response rating: 500 g ai/ha
# Procedure, shortened: as §1
# [3] = Postemergence, 125 g ai/ha, scale 0 to 100, 0 no effect, 100 complete control
# [4] = Postemergence, 250 g ai/ha, scale 0 to 100, 0 no effect, 100 complete control
# [5] = postemergence, 62 g ai/ha, scale 0 to 100
# [6] = 125 g ai/ha, scale 0 (no effect) to 100 (complete control), visual, 12 to 14 days, preemergence
# [7] = 250 g ai/ha, scale 0 to 100 (0 no effect, 100 complete control), visual, 12 to 14 days, preemergence
# [8] = Preemergence, scale 0 to 100, 0 no effect, 100 complete control
# [9] = Postemergence, 500 g ai/ha, 0 to 100 scale, 0 no effect, 100 complete control
# [10] = Postemergence, 2000 g ai/ha, 0 to 100 scale, 0 no effect, 100 complete control
# [11] = Preemergence, 500 g ai/ha, visual rating, 0 to 100 scale (0 no effect, 100 complete control)
# [12] = Preemergence, 2000 g ai/ha, 0 to 100 scale, 0 no effect, 100 complete control
# [13] = 62 g ai/ha, scale 0 to 100 (0 no effect, 100 complete control)
# [14] = 125 g ai/ha, scale of 0 to 100, 0 is no effect, 100 is complete control
# [15] = 250 g ai/ha, scale of 0 to 100, 0 is no effect, 100 is complete control
# [16] = scale 0 to 100 (0 no effect, 100 complete control)
# [17] = postemergence, 125 g ai/ha, scale 0 to 100
smiles,measurement,setting,value
CCNC(=O)c1cc(NC(=O)c2cc(C(C)(C)C)nn2CC)ccc1F [Compound 58],Chickweed plant response rating,"chickweed; Postemergence, scale 0 to 100",85
same,"Plant response rating, Chickweed",chickweed; [3],20
same,"Plant response rating, Chickweed",chickweed; [4],50
same,"Plant response rating, Chickweed",chickweed; [5],20
same,"Plant response rating (0 = no effect, 100 = complete control), Johnsongrass","johnsongrass; 62 g ai/ha, preemergence",70
same,"Plant response rating, Johnsongrass",johnsongrass; [6],80
same,"Plant response rating, Johnsongrass",johnsongrass; [7],90
same,Johnsongrass plant response rating,"johnsongrass; Postemergence, scale 0 to 100",10
same,"Plant response rating, Johnsongrass",johnsongrass; [3],0
same,"Plant response rating, Johnsongrass",johnsongrass; [4],5
same,Johnsongrass plant response rating,johnsongrass; [8],100
same,"Plant response rating, Johnsongrass",johnsongrass; [5],0
same,"Plant response rating, Foxtail, Giant",giant foxtail [1]; [9],45
same,"Plant response rating, Foxtail, Giant",giant foxtail [1]; [10],60
same,"Foxtail, Giant plant response rating",giant foxtail [1]; [11],85
same,"Foxtail, Giant plant response rating",giant foxtail [1]; [12],95
same,Rice plant response rating,rice; [13],0
same,Rice plant response rating,rice; [14],35
same,Rice plant response rating,rice; [15],35
same,"Plant response rating, Rice",rice; [16],75
same,"Plant response rating, Pigweed",redroot pigweed; [9],70
same,"Plant response rating, Pigweed",redroot pigweed; [10],90
same,Pigweed plant response rating,redroot pigweed; [11],100
same,Pigweed plant response rating,redroot pigweed; [12],100
same,"Plant response rating, Crabgrass, Large",large crabgrass; [9],40
same,"Plant response rating, Crabgrass, Large",large crabgrass; [10],75
same,"Crabgrass, Large plant response rating",large crabgrass; [11],70
same,"Crabgrass, Large plant response rating",large crabgrass; [12],95
same,"Plant response rating (0 = no effect, 100 = complete control), Nutsedge, Yellow","yellow nutsedge; 62 g ai/ha, preemergence",10
same,"Plant response rating, Nutsedge, Yellow",yellow nutsedge; [6],20
same,"Plant response rating, Nutsedge, Yellow",yellow nutsedge; [7],50
same,"Nutsedge, Yellow plant response rating","yellow nutsedge; Postemergence, scale 0 to 100",5
same,"Plant response rating, Nutsedge, Yellow",yellow nutsedge; [4],5
same,"Nutsedge, Yellow plant response rating",yellow nutsedge; [8],50
same,"Plant response rating, Nutsedge, Yellow",yellow nutsedge; [5],0
same,"Plant response rating (0 = no effect, 100 = complete control), Foxtail, Giant","giant foxtail [2]; 62 g ai/ha, preemergence",70
same,"Plant response rating, Foxtail, Giant",giant foxtail [2]; [6],100
same,"Plant response rating, Foxtail, Giant",giant foxtail [2]; [7],100
same,"Foxtail, Giant plant response rating","giant foxtail [2]; Postemergence, scale 0 to 100",40
same,"Plant response rating, Foxtail, Giant",giant foxtail [2]; [3],5
same,"Plant response rating, Foxtail, Giant",giant foxtail [2]; [4],20
same,"Foxtail, Giant plant response rating",giant foxtail [2]; [8],100
same,"Plant response rating, Foxtail, Giant",giant foxtail [2]; [5],0
same,"Plant response rating (0 = no effect, 100 = complete control), Kochia","kochia; 62 g ai/ha, preemergence",95
same,"Plant response rating, Kochia",kochia; [6],95
same,"Plant response rating, Kochia",kochia; [7],95
same,Kochia plant response rating,"kochia; Postemergence, scale 0 to 100",85
same,"Plant response rating, Kochia",kochia; [3],80
same,"Plant response rating, Kochia",kochia; [4],80
same,Kochia plant response rating,kochia; [8],100
same,"Plant response rating, Kochia",kochia; [5],75
same,"Plant response rating (0 = no effect, 100 = complete control), Surinam Grass","Surinam grass; 62 g ai/ha, preemergence",10
same,"Plant response rating, Surinam Grass",Surinam grass; [6],55
same,"Plant response rating, Surinam Grass",Surinam grass; [7],80
same,Surinam Grass plant response rating,"Surinam grass; Postemergence, scale 0 to 100",25
same,Surinam Grass plant response rating,Surinam grass; [8],100
CCOC(=O)c1cc(NC(=O)c2cc(C(C)(C)C)nn2CC)ccc1OC [Compound 96],Chickweed plant response rating,"chickweed; Postemergence, scale 0 to 100",100
same,"Plant response rating, Chickweed",chickweed; [4],100
same,"Plant response rating, Chickweed",chickweed; [17],100
same,"Plant response rating, Chickweed",chickweed; [5],100
same,"Plant response rating (0 = no effect, 100 = complete control), Johnsongrass","johnsongrass; 62 g ai/ha, preemergence",40
same,"Plant response rating, Johnsongrass",johnsongrass; [6],60
same,Johnsongrass plant response rating,"johnsongrass; Postemergence, scale 0 to 100",50
same,"Plant response rating, Johnsongrass",johnsongrass; [4],50
same,Johnsongrass plant response rating,johnsongrass; [8],95
same,"Plant response rating, Johnsongrass",johnsongrass; [17],50
same,"Plant response rating, Johnsongrass",johnsongrass; [5],0
same,"Foxtail, Giant plant response rating",giant foxtail [1]; [9],60
same,"Plant response rating, Foxtail, Giant",giant foxtail [1]; [10],80
same,"Foxtail, Giant plant response rating",giant foxtail [1]; [11],75
same,"Foxtail, Giant plant response rating",giant foxtail [1]; [12],95
same,Rice plant response rating,rice; [13],40
same,Rice plant response rating,rice; [14],45
same,Rice plant response rating,rice; [15],70
same,"Plant response rating, Rice",rice; [16],75
same,Pigweed plant response rating,redroot pigweed; [9],95
same,"Plant response rating, Pigweed",redroot pigweed; [10],100
same,Pigweed plant response rating,redroot pigweed; [11],100
same,Pigweed plant response rating,redroot pigweed; [12],100
same,"Crabgrass, Large plant response rating",large crabgrass; [9],30
same,"Plant response rating, Crabgrass, Large",large crabgrass; [10],70
same,"Crabgrass, Large plant response rating",large crabgrass; [11],80
same,"Crabgrass, Large plant response rating",large crabgrass; [12],100
same,"Plant response rating (0 = no effect, 100 = complete control), Nutsedge, Yellow","yellow nutsedge; 62 g ai/ha, preemergence",0
same,"Plant response rating, Nutsedge, Yellow",yellow nutsedge; [6],0
same,"Nutsedge, Yellow plant response rating","yellow nutsedge; Postemergence, scale 0 to 100",5
same,"Plant response rating, Nutsedge, Yellow",yellow nutsedge; [4],5
same,"Nutsedge, Yellow plant response rating",yellow nutsedge; [8],10
same,"Plant response rating, Nutsedge, Yellow",yellow nutsedge; [17],0
same,"Plant response rating, Nutsedge, Yellow",yellow nutsedge; [5],0
same,"Plant response rating (0 = no effect, 100 = complete control), Foxtail, Giant","giant foxtail [2]; 62 g ai/ha, preemergence",70
same,"Plant response rating, Foxtail, Giant",giant foxtail [2]; [6],100
same,"Plant response rating, Foxtail, Giant",giant foxtail [2]; [7],100
same,"Foxtail, Giant plant response rating","giant foxtail [2]; Postemergence, scale 0 to 100",60
same,"Plant response rating, Foxtail, Giant",giant foxtail [2]; [4],45
same,"Foxtail, Giant plant response rating",giant foxtail [2]; [8],100
same,"Plant response rating, Foxtail, Giant",giant foxtail [2]; [17],20
same,"Plant response rating, Foxtail, Giant",giant foxtail [2]; [5],10
same,"Plant response rating (0 = no effect, 100 = complete control), Kochia","kochia; 62 g ai/ha, preemergence",90
same,"Plant response rating, Kochia",kochia; [6],95
same,Kochia plant response rating,"kochia; Postemergence, scale 0 to 100",90
same,"Plant response rating, Kochia",kochia; [4],85
same,Kochia plant response rating,kochia; [8],100
same,"Plant response rating, Kochia",kochia; [17],80
same,"Plant response rating, Kochia",kochia; [5],80
same,"Plant response rating (0 = no effect, 100 = complete control), Surinam Grass","Surinam grass; 62 g ai/ha, preemergence",0
same,"Plant response rating, Surinam Grass",Surinam grass; [6],10
same,Surinam Grass plant response rating,"Surinam grass; Postemergence, scale 0 to 100",60
same,"Plant response rating, Surinam Grass",Surinam grass; [4],40
same,Surinam Grass plant response rating,Surinam grass; [8],65
same,"Plant response rating, Surinam Grass",Surinam grass; [17],40
same,"Plant response rating, Surinam Grass",Surinam grass; [5],0
